# ChEMBL document CHEMBL1144739, “[6]-gingerol induces Ca2+ mobilization in Madin-Darby canine kidney cells” (2008)
# Activity calls are given as the source filed them. The rule behind the calls is not given here.
# Tests used:
# MDCK [1] = test: Inhibition of drug-induced intracellular calcium level in dog MDCK cells at 20 uM in absence of extracellular calcium; type: functional, Canis lupus familiaris; parameters: scale not given: the % may be the effect or the level left
# MDCK [2] = test: Increase in drug-induced intracellular calcium level in dog MDCK cells at 10 uM after 250 seconds; type: functional, Canis lupus familiaris
# MDCK [3] = test: Activation of protein kinase C in dog MDCK cells assessed as change in intracellular calcium level in presence of phorbol myristate acetate; type: cell-based; settings: Canis lupus familiaris
# MDCK [4] = test: Increase in drug-induced intracellular calcium level in dog MDCK cells at 0.1 uM; type: functional, cell-based; settings: Canis lupus familiaris
# MDCK [5] = test: Increase in drug-induced intracellular calcium level in dog MDCK cells in presence of extracellular calcium; type: functional, cell-based; settings: Canis lupus familiaris
# MDCK [6] = test: Inhibition of protein kinase C in dog MDCK cells assessed as change in intracellular calcium level in presence of GF109203 X; type: cell-based; settings: Canis lupus familiaris
# MDCK [7] = test: Inhibition of phospholipase C in dog MDCK cells assessed as change in basal intracellular calcium level in presence of U73122; type: cell-based; settings: Canis lupus familiaris
# MDCK [8] = test: Elevation of drug-induced intracellular calcium level in MDCK cells at 1 uM; type: functional, Canis lupus familiaris
SMILES,Activity (MDCK [1]) [%],Activity (MDCK [2]) [nM],Activity (MDCK [3]),Activity (MDCK [4]),Activity (MDCK [5]),Activity (MDCK [6]),Activity (MDCK [7]),Activity (MDCK [8]) [nM]
CCCCC[C@H](O)CC(=O)CCc1ccc(O)c(OC)c1 [GINGEROL],78,295,Active,inactive,Dose-dependent effect,Active,inactive,–
C/C=C(/C)C(=O)O[C@H]1C(C)=C2[C@H]([C@@H]1OC(=O)CCCCCCC)[C@@](C)(OC(C)=O)C[C@H](OC(=O)CCC)[C@@]1(O)[C@H]2OC(=O)[C@@]1(C)O [THAPSIGARGIN],–,–,–,–,–,–,–,216
